Tests used:
Assay in all cases: Zones of inhibition of impregnated catheter segments, modified Kirby-Bauer method
Candida albicans = assay type: cell-based; details: for zone of inhibition at 100000 µg/mL: catheter impregnated with 100 mg/ml of each agent
Experimental: (§1) To evaluate the antimicrobial activity of central venous catheters treated with α-lipoic acid or its combination with gentamicin, segments of 7 French triple lumen polyurethane central venous catheters were impregnated with α-lipoic acid, gentamicin, or the combination of lipoic acid and gentamicin using the same patented method described in Example 1 with 50 mg/ml of each agent (for the final solution volume). After the impregnation process and drying, zones of inhibition were performed on one-centimeter segments according to a modified Kirby-Bauer method against MSSE, MRSE, MRSA, K. pneumoniae, E. coli, P. mirabilis, Pseudomonas aeruginosa, and Candida albicans. Each segment was half embedded in the center of a Muller-Hinton agar plate that had been previously inoculated with an individual organism. Prior to placing the catheter segments in agar, each organism was grown for 18 hours in TSB to a concentration of 0.5 McFarland (10^8 cfu/ml). A cotton swab was placed in the suspension and streaked across the surface of the Muller-Hinton agar plate to cover the entire plate. All plates were placed in a 37° C. incubator for 24 hours. Zones were measured in mm after the incubation period (Table 2).
(§2) To evaluate the antimicrobial activity of central venous catheters treated with α-lipoic acid or its combination with doxycycline, segments of 7 French triple lumen polyurethane central venous catheters were impregnated with doxycycline or the combinations of α-lipoic acid and doxycycline using the same patented method described in Example 1 (U.S. Pat. No. 6,589,591) with 50 mg/ml of each agent (for the final solution volume). After the impregnation process and drying, zones of inhibition were performed on one-centimeter segments according to a modified Kirby-Bauer method against MSSE, MRSE, MRSA, K. pneumoniae, E. coli, P. aeruginosa, P. mirabilis, and C. albicans as described in Example 2. Zones of inhibition were measured in mm after the incubation period (Table 3).
(§3) To evaluate the antimicrobial activity of central venous catheters treated with lipoamide or its combination with levofloxacin, segments of 7 French triple lumen polyurethane central venous catheters were impregnated with levofloxacin or the combinations of lipoamide and levofloxacin using the same patented method described in Example 1 (U.S. Pat. No. 6,589,591) with 100 mg/ml (final solution volume) of each agent. After the impregnation process and drying, zones of inhibition were performed on one-centimeter segments according to a modified Kirby-Bauer method against MSSE, MRSE, MRSA, vancomycin-resistant Enterococcus (VRE), K. pneumoniae, E. coli, P. aeruginosa, P. mirabilis, and C. albicans as described in Example 2. Zones of inhibition were measured in mm after the incubation period (Table 4).
as §3, with “doxycycline,” for “levofloxacin,”, “doxycycline” for “levofloxacin”, “5).” for “4).”
(§4) To evaluate the antimicrobial activity of central venous catheters treated with dihydrolipoic acid, segments of 7 French triple lumen polyurethane central venous catheters were impregnated with dihydrolipoic acid using the same patented method described in Example 1 (U.S. Pat. No. 6,589,591) with 25 mg/ml (final solution volume) of the agent. […]

Pseudomonas aeruginosa = assay type: cell-based; details: Pseudomonas aeruginosa; for zone of inhibition at 100000 µg/mL: Pseudomonas aeroginosa, catheter impregnated with 100 mg/ml of each agent
Experimental: as §1, §2, §3
as §3, with “doxycycline,” for “levofloxacin,”, “doxycycline” for “levofloxacin”, “5).” for “4).”
as §4

Proteus mirabilis = assay type: cell-based; details: for zone of inhibition at 100000 µg/mL: catheter impregnated with 100 mg/ml of each agent
Experimental: as §1, §2, §3
as §3, with “doxycycline,” for “levofloxacin,”, “doxycycline” for “levofloxacin”, “5).” for “4).”
as §4

Klebsiella pneumoniae I = assay type: cell-based; details: for zone of inhibition at 100000 µg/mL: catheter impregnated with 100 mg/ml of each agent
Experimental: as §1, §2, §3
as §3, with “doxycycline,” for “levofloxacin,”, “doxycycline” for “levofloxacin”, “5).” for “4).”
as §4

Escherichia coli = assay type: cell-based; details: for zone of inhibition at 100000 µg/mL: catheter impregnated with 100 mg/ml of each agent
Experimental: as §1, §2, §3
as §3, with “doxycycline,” for “levofloxacin,”, “doxycycline” for “levofloxacin”, “5).” for “4).”
as §4

Klebsiella pneumoniae II = assay type: cell-based; details: for zone of inhibition at 100000 µg/mL: Klebsiella pneumoniae II, catheter impregnated with 100 mg/ml of each agent
Experimental: as §1, §2, §3
as §3, with “doxycycline,” for “levofloxacin,”, “doxycycline” for “levofloxacin”, “5).” for “4).”
as §4

[1] = tested on: vancomycin-resistant Enterococcus (VRE); assay type: cell-based; details: Enterococcus, catheter impregnated with 100 mg/ml of each agent
Experimental: as §1
(§5) To evaluate the antimicrobial activity of central venous catheters treated with lipoamide or its combination with levofloxacin, segments of 7 French triple lumen polyurethane central venous catheters were impregnated with levofloxacin or the combinations of lipoamide and levofloxacin using the same patented method described in Example 1 (U.S. Pat. No. 6,589,591) with 100 mg/ml (final solution volume) of each agent. […] Zones of inhibition were measured in mm after the incubation period (Table 4).
as §5, with “doxycycline,” for “levofloxacin,”, “doxycycline” for “levofloxacin”, “5).” for “4).”
To evaluate the antimicrobial activity of central venous catheters treated with dihydrolipoic acid, segments of 7 French triple lumen polyurethane central venous catheters were impregnated with dihydrolipoic acid using the same patented method described in Example 1 (U.S. Pat. No. 6,589,591) with 25 mg/ml (final solution volume) of the agent. […] Zones of inhibition were measured in mm after the incubation period (Table 6).

MSSE = assay type: cell-based, Staphylococcus epidermidis; details: for zone of inhibition at 100000 µg/mL: catheter impregnated with 100 mg/ml of each agent
Experimental: as §1, §2, §3
as §3, with “doxycycline,” for “levofloxacin,”, “doxycycline” for “levofloxacin”, “5).” for “4).”
as §4

MRSE = assay type: cell-based, Staphylococcus epidermidis; details: for zone of inhibition at 100000 µg/mL: catheter impregnated with 100 mg/ml of each agent
Experimental: as §1, §2, §3
as §3, with “doxycycline,” for “levofloxacin,”, “doxycycline” for “levofloxacin”, “5).” for “4).”
as §4

MRSA = assay type: cell-based, Staphylococcus aureus; details: for zone of inhibition at 100000 µg/mL: catheter impregnated with 100 mg/ml of each agent
Experimental: as §1, §2, §3
as §3, with “doxycycline,” for “levofloxacin,”, “doxycycline” for “levofloxacin”, “5).” for “4).”
as §4

[2] = catheter impregnated with 50 mg/ml of each agent, 37° C., 24 hours
[3] = Staphylococcus epidermidis, catheter impregnated with 50 mg/ml of each agent, 37° C., 24 hours

Compound	zone of inhibition at 100000 µg/mL (Candida albicans)	zone of inhibition at 100000 µg/mL (Pseudomonas aeruginosa)	zone of inhibition at 100000 µg/mL (Proteus mirabilis)	zone of inhibition at 100000 µg/mL (Klebsiella pneumoniae I)	zone of inhibition at 100000 µg/mL (Escherichia coli)	zone of inhibition at 100000 µg/mL (Klebsiella pneumoniae II)	zone of inhibition at 100000 µg/mL [1]	zone of inhibition at 100000 µg/mL (MSSE; Staphylococcus epidermidis)	zone of inhibition at 100000 µg/mL (MRSE; Staphylococcus epidermidis)	zone of inhibition at 100000 µg/mL (MRSA; Staphylococcus aureus)	further results
C[C@H]1c2cccc(O)c2C(=O)C2=C(O)[C@]3(O)C(=O)C(C(N)=O)=C(O)[C@@H](N(C)C)[C@@H]3[C@@H](O)[C@@H]21 [Doxycycline, doxycycline]	5 mm	11 mm	0 mm	19 mm	22 mm	7 mm	30 mm	20 mm	38 mm	19 mm	zone of inhibition at 50000 µg/mL (Candida albicans; [2]): 13 mm; zone of inhibition at 50000 µg/mL (Pseudomonas aeruginosa; [2]): 13 mm; zone of inhibition at 50000 µg/mL (Proteus mirabilis; [2]): 4 mm; zone of inhibition at 50000 µg/mL (Klebsiella pneumoniae I; [2]): 17 mm; zone of inhibition at 50000 µg/mL (Escherichia coli; [2]): 24 mm; zone of inhibition at 50000 µg/mL (Klebsiella pneumoniae II; Klebsiella pneumoniae, Klebsielle pneuminiae II, catheter impregnated with 50 mg/ml of each agent, 37° C., 24 hours): 13 mm; zone of inhibition at 50000 µg/mL (MSSE; [3]): 21 mm; zone of inhibition at 50000 µg/mL (MRSE; [3]): 35 mm; zone of inhibition at 50000 µg/mL (MRSA; Staphylococcus aureus, catheter impregnated with 50 mg/ml of each agent, 37° C., 24 hours): 22 mm
C[C@H]1COc2c(N3CCN(C)CC3)c(F)cc3c(=O)c(C(=O)O)cn1c23 [Levofloxacin, levofloxacin]	0 mm	19 mm	31 mm	24 mm	27 mm	18 mm	7 mm	30 mm	31 mm	21 mm	
gentamicin											Zones of inhibition (Candida albicans; [2]): 0 mm; Zones of inhibition (Pseudomonas aeruginosa; [2]): 5 mm; Zones of inhibition (Proteus mirabilis; [2]): 14 mm; Zones of inhibition (Klebsiella pneumoniae I; [2]): 13 mm; Zones of inhibition (Escherichia coli; [2]): 12 mm; Zones of inhibition (Klebsiella pneumoniae II; Klebsielle pneuminiae II, catheter impregnated with 50 mg/ml of each agent, 37° C., 24 hours): 0 mm; Zones of inhibition (MSSE; [2]): 21 mm; Zones of inhibition (MRSE; [2]): 22 mm; Zones of inhibition (MRSA; [2]): 15 mm
